Earlier results on one compound are cited in paper PMC11070408, “Bifunctional octadentate pseudopeptides as Zirconium-89 chelators for immuno-PET applications” (EJNMMI Radiopharmacy and Chemistry, 2024).

Details of this series: method as in Sarbisheh and Salih [2020]. As to conditions: ref Sarbisheh and Salih [2020].

`CC(=O)N(O)CCCCCNC(=O)CCC(=O)N(O)CCCCCNC(=O)CCC(=O)N(O)CCCCCNC(=O)CCC(=O)NCC(CNC(=O)CCC(=O)NCCCCCN(O)C(=O)CCC(=O)NCCCCCN(O)C(=O)CCC(=O)NCCCCCN(O)C(C)=O)Cc1ccc([N+](=O)[O-])cc1` [DFO2]: the solubility in water entry is reported as “poor”.
